# Assay results from patent US12514832B2, “Methods for using low-dose colchicine after myocardial infarction” (INSTITUT DE CARDIOLOGIE DE MONTREAL, priority 2019, dated 2026).
# System: patients recruited within 30 days after a myocardial infarction
# Experiment: COLCOT randomized, double-blind, placebo-controlled trial: clinical efficacy end points
# Type: in vivo, human
# Settings: for risk of ischemic cardiovascular events / primary composite efficacy end point versus placebo (in words): 0.5 mg once daily; for Total primary endpoint events, Rate Ratio (95% CI), Negative binomial model: marginal rate ratio
# Protocol: We performed a randomized, double-blind trial involving patients recruited within 30 days after a myocardial infarction. The patients were randomly assigned to receive either low-dose colchicine (0.5 mg once daily) or placebo. A total of 4745 patients were enrolled; 2366 patients were assigned to the colchicine group, and 2379 to the placebo group. Patients were followed for a median of 22.6 months.
# The primary efficacy end point was a composite of death from cardiovascular causes, resuscitated cardiac arrest, myocardial infarction, stroke, or urgent hospitalization for angina leading to coronary revascularization. The components of the primary end point and safety were also assessed.
# In this randomized, double-blind, placebo-controlled, investigator-initiated trial, we assigned patients in a 1:1 ratio to receive either colchicine (at a dose of 0.5 mg once daily) or placebo. The trial protocol, available at NEJM.org, was designed by a trial steering committee. The protocol was approved by the institutional review board at each of the 167 centers in the 12 countries that participated in the trial (available at NEJM.org). All trial support activities, including project coordination, data management, site monitoring, and statistical oversight and analyses, were performed at the Montreal Health Innovations Coordinating Center. Potential trial end-point events were adjudicated by an independent clinical end-point committee composed of experienced cardiologists and neurologists who were unaware of the trial-group assignments. The trial was overseen by a data and safety monitoring board of independent experts. The trial medication and matching placebo were provided by Pharmascience.
# Patients were excluded if they had severe heart failure, a left ventricular ejection fraction of less than 35%, stroke within the previous 3 months, a type 2 index myocardial infarction, coronary-bypass surgery either within the previous 3 years or planned, a history of noncutaneous cancer within the previous 3 years, inflammatory bowel disease or chronic diarrhea, neuromuscular disease or a nontransient creatine kinase level that was greater than three times the upper limit of the normal range (unless due to infarction), clinically significant nontransient hematologic abnormalities, severe renal disease with a serum creatinine level that was greater than two times the upper limit of the normal range; severe hepatic disease, drug or alcohol abuse, current or planned long-term systemic glucocorticoid therapy, or a history of clinically significant sensitivity to colchicine. (Details regarding eligibility criteria are provided herein.)
# The primary efficacy end point was a composite of death from cardiovascular causes, resuscitated cardiac arrest, myocardial infarction, stroke, or urgent hospitalization for angina leading to coronary revascularization in a time-to-event analysis.
# The secondary end points consisted of the components of the primary efficacy end point; a composite of death from cardiovascular causes, resuscitated cardiac arrest, myocardial infarction, or stroke; and total mortality in time-to-event analyses. Coronary revascularization, hospitalization for heart failure, atrial fibrillation, and deep venous thrombosis or pulmonary embolus were prespecified as exploratory end points in the protocol.
# The efficacy analyses were conducted with the use of positively adjudicated data and according to the intention-to-treat principle. The primary end point was compared between the two trial groups with the use of a log-rank test, and the hazard ratio from a Cox proportional-hazards model, with a 95% confidence interval, was calculated. A Cox proportional-hazards model with adjustment for important baseline characteristics was also used as prespecified in the protocol.
# The analysis of the primary end point was repeated in the per-protocol population (i.e., patients without major protocol deviations). […]
# [1] = ITT, N=2366, first and recurrent events
# [2] = colchicine vs placebo, ITT, listed as colchicine
# [3] = colchicine vs placebo, per-protocol population
compound,measurement,setting,value
"COc1cc2c(c(OC)c1OC)-c1ccc(OC)c(=O)cc1[C@@H](NC(C)=O)CC2 [Colchicine, colchicine]",risk of ischemic cardiovascular events / primary composite efficacy end point versus placebo (in words),,statistically significant lower risk of ischemic cardiovascular events than placebo
same,risk of ischemic cardiovascular events / primary composite efficacy end point versus placebo (in words),listed as colchicine,significantly lower percentage of patients with ischemic cardiovascular events than placebo
same,"Time to first primary endpoint, Adjusted Hazard Ratio (95% CI)","Colchicine vs. Placebo, multivariable Cox regression adjusted for age, diabetes, prior revascularization, prior heart failure",0.78 (0.62-0.98)
same,"Atrial fibrillation, number of patients","ITT, N=2366, 0.5 mg once daily",36
same,"Atrial fibrillation, percent","ITT, N=2366, 0.5 mg once daily",1.5%
same,"Death from cardiovascular causes, number of patients","ITT, N=2366, 0.5 mg once daily",20
same,"Death from cardiovascular causes, percent","ITT, N=2366, 0.5 mg once daily",0.8%
same,"Death, number of patients","ITT, N=2366, 0.5 mg once daily",43
same,"Death, percent","ITT, N=2366, 0.5 mg once daily",1.8%
same,"Deep venous thrombosis or pulmonary embolus, number of patients","ITT, N=2366, 0.5 mg once daily",10
same,"Deep venous thrombosis or pulmonary embolus, percent","ITT, N=2366, 0.5 mg once daily",0.4%
same,"Myocardial infarction, number of patients","ITT, N=2366, 0.5 mg once daily",89
same,"Myocardial infarction, percent","ITT, N=2366, 0.5 mg once daily",3.8%
same,"Primary composite end point, number of patients","ITT, N=2366, 0.5 mg once daily",131
same,"Primary composite end point, percent of patients","ITT, N=2366, 0.5 mg once daily",5.5%
same,"Resuscitated cardiac arrest, number of patients","ITT, N=2366, 0.5 mg once daily",5
same,"Resuscitated cardiac arrest, percent","ITT, N=2366, 0.5 mg once daily",0.2%
same,"Secondary composite end point (CV death, resuscitated cardiac arrest, MI, stroke), number of patients","ITT, N=2366, 0.5 mg once daily",111
same,"Secondary composite end point, percent","ITT, N=2366, 0.5 mg once daily",4.7%
same,"Stroke, number of patients","ITT, N=2366, 0.5 mg once daily",5
same,"Stroke, percent","ITT, N=2366, 0.5 mg once daily",0.2%
same,"Urgent hospitalization for angina leading to revascularization, number of patients","ITT, N=2366, 0.5 mg once daily",25
same,"Urgent hospitalization for angina leading to revascularization, percent","ITT, N=2366, 0.5 mg once daily",1.1%
same,Total number of primary endpoint events (first and recurrent),"ITT, N=2366, 52949 patient-months of follow-up",154
same,Number of patients with 0 primary endpoint events,[1],2235
same,Number of patients with 1 primary endpoint event,[1],111
same,Number of patients with 2 primary endpoint events,[1],18
same,Number of patients with 3 primary endpoint events,[1],1
same,Number of patients with 4 primary endpoint events,[1],1
same,Rate of primary endpoint events per 100 patient-months,[1],0.29 per 100 patient-months
same,"Atrial fibrillation, Hazard Ratio (95% CI)","colchicine vs placebo, ITT",0.93 (0.59-1.46)
same,"Death from cardiovascular causes, Hazard Ratio (95% CI)","colchicine vs placebo, ITT",0.84 (0.46-1.52)
same,"Death, Hazard Ratio (95% CI)","colchicine vs placebo, ITT",0.98 (0.64-1.49)
same,"Deep venous thrombosis or pulmonary embolus, Hazard Ratio (95% CI)","colchicine vs placebo, ITT",1.43 (0.54-3.75)
same,"Myocardial infarction, Hazard Ratio (95% CI)","colchicine vs placebo, ITT",0.91 (0.68-1.21)
same,"Resuscitated cardiac arrest, Hazard Ratio (95% CI)","colchicine vs placebo, ITT",0.83 (0.25-2.73)
same,"Secondary composite end point, Hazard Ratio (95% CI)","colchicine vs placebo, ITT",0.85 (0.66-1.10)
same,"Stroke, Hazard Ratio (95% CI)","colchicine vs placebo, ITT",0.26 (0.10-0.70)
same,"Total primary endpoint events, Hazard Ratio (95% CI), Andersen-Gill model","colchicine vs placebo, ITT",0.69 (0.54; 0.88)
same,"Total primary endpoint events, Hazard Ratio (95% CI), WLW model 1st Event","colchicine vs placebo, ITT",0.77 (0.61; 0.96)
same,"Total primary endpoint events, Hazard Ratio (95% CI), WLW model 2nd Event","colchicine vs placebo, ITT",0.73 (0.48; 1.11)
same,"Total primary endpoint events, Hazard Ratio (95% CI), WLW model 3rd Event","colchicine vs placebo, ITT",0.64 (0.37; 1.10)
same,"Total primary endpoint events, Hazard Ratio (95% CI), WLW model Average","colchicine vs placebo, ITT",0.77 (0.61; 0.96)
same,"Urgent hospitalization for angina leading to revascularization, Hazard Ratio (95% CI)","colchicine vs placebo, ITT",0.50 (0.31-0.81)
same,"Total primary endpoint events, Rate Ratio (95% CI), Negative binomial model","colchicine vs placebo, ITT",0.66 (0.51; 0.86)
same,"Total primary endpoint events, Rate Ratio (95% CI), Negative binomial model",[2],0.66
same,"Primary composite end point, Hazard Ratio (95% CI)","colchicine vs placebo, ITT, time to first event",0.77
same,"Death from cardiovascular causes, Hazard Ratio (95% CI)",[2],0.84
same,"Myocardial infarction, Hazard Ratio (95% CI)",[2],0.91
same,"Resuscitated cardiac arrest, Hazard Ratio (95% CI)",[2],0.83
same,"Secondary composite end point, Hazard Ratio (95% CI)",[2],0.85
same,"Stroke, Hazard Ratio (95% CI)",[2],0.26
same,"Urgent hospitalization for angina leading to revascularization, Hazard Ratio (95% CI)",[2],0.50
same,"Primary endpoint, hazard ratio","colchicine vs placebo, men, per-protocol population",0.70 (0.52; 0.93)
same,"MI, Hazard Ratio (95% CI)",[3],0.84 (0.62-1.14)
same,"Primary endpoint, Hazard Ratio (95% CI)",[3],0.71 (0.56-0.90)
same,"Resuscitated cardiac arrest, Hazard Ratio (95% CI)",[3],1.00 (0.29-3.46)
same,"Stroke, Hazard Ratio (95% CI)",[3],0.26 (0.10-0.71)
same,"Urgent hospitalization for angina requiring revascularization, Hazard Ratio (95% CI)",[3],0.47 (0.28-0.78)
same,"Primary endpoint, Hazard Ratio (95% CI)","colchicine vs placebo, per-protocol population, listed as colchicine",0.71
same,"Primary efficacy composite endpoint, Hazard ratio","colchicine vs placebo, subgroup Active smoker",0.93
